Assay results reported in publication PMC12005787, “Synthetic Lethality of SHP2 and XIAP Suppresses Proliferation and Metastasis in KRAS‐mutant Nonsmall Cell Lung Cancer” (Advanced Science, 2025).
pIC50: −log10 of the molar value.

Key:
[1] = tested on: A549, NCI‐H2122, and NCI‐H1944 cells; assay: Effect of candidate drugs on cell viability and colony formation; type: cell-based, human; conditions: 1, 10 and 50 μM viability; 10 µM colony formation
Protocol: supplies are listed in Supplementary Table S5. The relevant reagents for protein extraction from Escherichia coli are listed in Supplementary Table S6. Inhibitory effects of embelin on KRAS-mutant and wild-type cells are listed in Supplementary Table S7.
For the adherent cell viability assay, cells in the logarithmic growth phase were seeded in 96-well culture plates at a density of 5×103 well-1 and incubated overnight. Diluted compounds or DMSO were added, or specific treatments were incubated at 37 °C and 5% CO2 for 24 h or 48 h. Cell viability was determined using CCK-8 or CellLightTM Cell Viability Assay Kit, according to the manufacturer's protocol. The luminescence signals of the treated samples were normalized to those of the DMSO group.
For spherical cell viability assays, cells in the logarithmic growth phase were inoculated ata density of 4×10^3 well-1 into 96-well spherical cell microplates and incubated at 37 °C, 5% CO2 for 24 h or 48 h. Cell viability was measured using the CellTiter-Glo® Luminescent Cell Viability 3D Cell Viability Assay Kit, according to the manufacturer’s protocol. The remaining steps were the same as those described above.
Colony formation experiment […]
Finally, the staining results were recorded using an inverted microscope. […]

[2] = target: T1, HePTP (Homo sapiens, UniProt P35236); assay: PTPs activity assay (DiFMUP); type: biochemical
T1 construct: His; made in house; host or cells: E. coli
T1 sequence (P35236 1-360): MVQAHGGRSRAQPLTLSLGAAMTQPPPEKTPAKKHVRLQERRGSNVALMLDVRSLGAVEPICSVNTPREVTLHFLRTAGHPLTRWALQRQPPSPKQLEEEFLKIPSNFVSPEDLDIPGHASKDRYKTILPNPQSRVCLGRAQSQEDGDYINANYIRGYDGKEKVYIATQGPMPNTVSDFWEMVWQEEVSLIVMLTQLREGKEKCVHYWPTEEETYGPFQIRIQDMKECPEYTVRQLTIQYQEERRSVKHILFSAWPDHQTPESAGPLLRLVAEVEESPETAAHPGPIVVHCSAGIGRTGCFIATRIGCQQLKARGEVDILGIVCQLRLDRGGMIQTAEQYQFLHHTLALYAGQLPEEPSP
Protocol: (§1) Catalytic activity screening methods for PTPs using candidate compounds were performed as previously described.^[ [77] ^] In brief, soluble fusion PTP proteins, His‐ΔSHP2, encompassing the peptide from amino acids 205–593 retaining PTP activity, His‐ΔSHP2^K325A, His‐ΔSHP1, encompassing the peptide from amino acids 202–595 retaining PTP activity, His‐PTP1B, His‐HePTP, His‐VHR, and His‐TCPTP were cloned, expressed, and purified in E. coli. After determining protein concentration using bicinchoninic acid (BCA) assay kit, 1 µg fusion protein, 10 µM library compound were added in 100 µL reaction mixture (55 mM 4‐(2‐hydroxyethyl)‐1‐piperazineethanesulfonic acid [HEPES], 100 mM sodium chloride [NaCl], 0.5 mM ethylenediaminetetraacetic acid [EDTA], 1 mM dithiothreitol [DTT], 0.01% Triton X‐100, 0.002% bovine serum albumin [BSA], and 0.1% dimethyl sulfoxide [DMSO]) and incubated at 37 °C for 30 min in the dark, with Na3VO4 as positive control. The detection substrate DiFMUP (50 µM) was promptly added to each reaction and functioned at 37 °C for 30 min in the dark. The fluorescence intensity was then measured using Multimode Plate Reader (λa = 358 nm, λe = 455 nm, PerkinElmer, USA).

[3] = target: T2, VHR (Homo sapiens, UniProt P51452); assay: PTPs activity assay (DiFMUP); type: biochemical
T2 construct: His; made in house; host or cells: E. coli
T2 sequence (P51452 whole entry): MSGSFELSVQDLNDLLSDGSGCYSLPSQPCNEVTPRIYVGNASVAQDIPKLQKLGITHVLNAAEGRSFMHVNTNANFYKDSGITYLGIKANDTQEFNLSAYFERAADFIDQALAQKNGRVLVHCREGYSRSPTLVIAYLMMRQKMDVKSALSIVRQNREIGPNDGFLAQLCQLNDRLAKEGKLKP
Protocol: as §1

[4] = target: T3, TCPTP (Homo sapiens, UniProt P17706); assay: PTPs activity assay (DiFMUP); type: biochemical
T3 construct: His; made in house; host or cells: E. coli
T3 sequence (P17706 1-415): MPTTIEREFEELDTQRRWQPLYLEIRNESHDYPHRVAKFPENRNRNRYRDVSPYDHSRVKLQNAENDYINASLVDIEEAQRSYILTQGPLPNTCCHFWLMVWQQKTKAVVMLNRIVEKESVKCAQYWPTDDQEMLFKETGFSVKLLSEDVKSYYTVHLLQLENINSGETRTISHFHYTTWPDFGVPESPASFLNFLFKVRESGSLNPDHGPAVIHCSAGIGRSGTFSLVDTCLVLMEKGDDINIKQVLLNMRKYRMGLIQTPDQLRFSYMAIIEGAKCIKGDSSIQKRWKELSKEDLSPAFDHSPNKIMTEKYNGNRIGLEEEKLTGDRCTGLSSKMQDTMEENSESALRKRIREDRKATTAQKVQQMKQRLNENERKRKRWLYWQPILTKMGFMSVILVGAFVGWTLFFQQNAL
Protocol: as §1

[5] = target: T4, ΔSHP2 (Homo sapiens, UniProt Q06124); assay: PTPs activity assay (DiFMUP); type: biochemical
T4 construct: His‐ΔSHP2, encompassing the peptide from amino acids 205–593 retaining PTP activity; His; made in house; host or cells: E. coli
T4 sequence (Q06124 205-593): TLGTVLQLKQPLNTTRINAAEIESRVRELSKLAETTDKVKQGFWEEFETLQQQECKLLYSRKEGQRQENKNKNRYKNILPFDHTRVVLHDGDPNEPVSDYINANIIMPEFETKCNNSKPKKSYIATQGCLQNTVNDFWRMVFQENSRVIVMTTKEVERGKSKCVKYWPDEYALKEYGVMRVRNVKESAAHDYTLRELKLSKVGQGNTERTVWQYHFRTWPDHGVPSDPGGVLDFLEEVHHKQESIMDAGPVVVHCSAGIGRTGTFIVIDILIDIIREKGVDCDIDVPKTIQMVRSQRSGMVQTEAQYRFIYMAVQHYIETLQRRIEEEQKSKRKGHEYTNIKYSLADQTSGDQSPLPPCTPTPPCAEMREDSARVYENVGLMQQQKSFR
Protocol: as §1

[6] = target: T5, ΔSHP1 (Homo sapiens, UniProt P29350); assay: PTPs activity assay (DiFMUP); type: biochemical
T5 construct: His‐ΔSHP1, encompassing the peptide from amino acids 202–595 retaining PTP activity; His; made in house; host or cells: E. coli
T5 sequence (P29350 202-595, stated change not applied): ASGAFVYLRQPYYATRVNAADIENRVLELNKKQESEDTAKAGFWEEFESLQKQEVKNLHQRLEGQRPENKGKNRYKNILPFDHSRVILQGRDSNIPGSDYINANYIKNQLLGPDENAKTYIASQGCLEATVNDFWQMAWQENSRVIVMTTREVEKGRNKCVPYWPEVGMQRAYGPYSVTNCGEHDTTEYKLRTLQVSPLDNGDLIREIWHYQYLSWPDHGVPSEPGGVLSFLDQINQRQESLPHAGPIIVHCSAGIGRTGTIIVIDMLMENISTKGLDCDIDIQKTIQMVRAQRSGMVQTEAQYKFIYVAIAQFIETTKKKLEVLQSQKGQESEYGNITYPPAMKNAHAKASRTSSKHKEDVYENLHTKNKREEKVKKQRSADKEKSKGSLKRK
Protocol: as §1

[7] = target: T6, PTP1B (Homo sapiens, UniProt P18031); assay: PTPs activity assay (DiFMUP); type: biochemical; conditions: read-out: IC50 of PTPs PTP1B
T6 construct: His; made in house; host or cells: E. coli
T6 sequence (P18031 1-435): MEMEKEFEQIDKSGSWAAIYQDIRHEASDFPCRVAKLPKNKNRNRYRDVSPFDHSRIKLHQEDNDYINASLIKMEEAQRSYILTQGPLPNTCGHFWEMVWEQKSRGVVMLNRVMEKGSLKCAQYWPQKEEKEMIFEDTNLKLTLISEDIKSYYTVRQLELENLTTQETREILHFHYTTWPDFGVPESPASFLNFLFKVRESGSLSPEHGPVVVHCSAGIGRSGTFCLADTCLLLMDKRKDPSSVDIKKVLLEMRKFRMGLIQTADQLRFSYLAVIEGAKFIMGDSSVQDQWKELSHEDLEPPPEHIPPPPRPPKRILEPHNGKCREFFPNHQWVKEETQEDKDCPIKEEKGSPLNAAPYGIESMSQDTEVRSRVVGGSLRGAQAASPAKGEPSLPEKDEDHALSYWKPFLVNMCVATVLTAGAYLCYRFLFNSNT
Protocol: as §1

CC1=NN(c2ccc(C)c(C)c2)C(=O)/C1=N\Nc1cccc(-c2cccc(C(=O)O)c2)c1O [S2229, Eltrombopag Olamine]
effect on proliferation of KRAS‐mutation cells [1]: inhibited the proliferation | pIC50 [2]: 3.69 | pIC50 [3]: 3.62 | pIC50 [4]: < 3.70 | pIC50 [5]: 4.66 | pIC50 [6]: < 3.70 | pIC50 [7]: 3.84
